Drawing on US20240132511A1, “TREATMENTS OF PRADER-WILLI SYNDROME” (Neuren Pharmaceuticals Limited, priority 2021, published 2024), this text covers melting point for two molecules.

As usually defined, the melting point is the temperature, or range, at which the solid turns liquid. On to `C[C@@]12CCCN1C(=O)C1(CCCC1)NC2=O` [Cyclic cyclopentyl-G-2-MeP, (8aS)-Methyl-spiro[cyclopentane-1,3(4H)-tetrahydropyrrolo[1,2-a]pyrazine]-1,4(2H)-dione], for which the melting point was in the range of 160 to 163 °C.
Molecule `C[C@@]12CCCN1C(=O)C1(CCCCC1)NC2=O` [Cyclic cyclohexyl-G-2-MeP, (8aS)-Methyl-spiro[cyclohexane-1,3(4H)-tetrahydropyrrolo[1,2-a]pyrazine]-1,4(2H)-dione] returned a melting point of 174 to 177 °C.
